Test results published in PubChem BioAssay AID2060495 (Molecular Pharmacology Branch, DTP, NCI, 2025).
Several values for one entry are separate records, joined by “and”; a condition that tells them apart may be missing. Equal values may be shown once.

Test system: 521955-158-R2-J5-PDC complex spheroid viability
Experiment: Anticancer human tumor 521955-158-R2-J5-PDC patient-derived pancreatic carcinoma cell line growth inhibition [GQUAD]
Conditions: for viability, T/C: stronger effect = lower value
Source text: DNA G-quadruplex Stabilizer Agents in Combinations in Complex Spheroids
A high-throughput screen of multi-cell type tumor spheroids was designed to identify active combinations of DNA G-quadruplex stabilizer agents and targeted small molecules. Complex spheroids include a stromal component modeled by human endothelial cells (HUVEC) and fibroblasts modeled by human mesenchymal stem cells (MSCs). The concentration ranges selected for each drug and investigational agent were based upon clinically achievable concentrations if the clinical Cmax of the agent was known.
Compounds. The drugs and investigational agents: pidnarulex (CX-5461; NSC782164), APTO-253 (NSC789042), BRACO-19 (NSC847499), peposertib (NSC802822), ceralasertib (NSC780249), elimusertib (NSC800525), camonsertib (NSC841442), AZD-1390 (NSC803789), olaparib (NSC753686), talazoparib (NSC767125), ART-558 (NSC835418), sotorasib (NSC818433), MRTX-1133 (NSC836407), SN-38 (NSC673596), topotecan (NSC609699), etoposide (NSC141540), doxorubicin (NSC123127), gemcitabine (NSC613327), 5-fluorouracil (NSC19893), paclitaxel (NSC125973), vemurafenib (NSC761431), panobinostat (NSC761190), R-306465 (JNJ-16241199; NSC773264), adavosertib (NSC754352), TP-3654 (NSC805149), carboplatin (NSC241240), KSQ-4279 (NSC840948), and staurosporine (NSC755774) were obtained from the National Cancer Institute (NCI) Developmental Therapeutics Program Chemical Repository (34). The FDA-approved anticancer drug set is available from the NCI Developmental Therapeutics Program. […] The stock solutions were prepared in dimethyl sulfoxide (DMSO, Sigma-Aldrich, St. Louis, MO, cat. D2650) at 800-fold the tested concentration and stored at -70 degrees C prior to their use. All drugs and investigational agents were tested over a range starting from a high concentration at or near the clinical Cmax and decreasing in half-log increments. If the clinical Cmax for an agent had not been determined, the highest concentration tested was 10 microM.
2.3 Cell Culture. All cells were maintained in an incubator at 37 degrees C and 5% CO2 with 95% humidity. The PDC lines were cultured according to standard operating procedures established by the NCI PDMR. All PDCs were thawed and cultured in Matrigel-coated flasks prepared with a working solution of 1X Ham's F-12 nutrient mix, without supplementation (Invitrogen, cat. 11765054), 100 U/mL penicillin-streptomycin (Invitrogen, cat. 15140122), and 2.5% Matrigel (Corning Inc., cat. 354248) for the first three passages. The 857933-349-R-J2-PDC line was cultured in 6C/Colon 1B media, which includes advanced DMEM/F-12 (Thermo Fisher Scientific, cat. 12634028), 10 mM HEPES (Thermo Fisher Scientific, cat. 15630080), 1X GlutaMAX supplement (Thermo Fisher Scientific, cat. 35050061), 0.1 mg/mL primocin (InvivoGen, cat. ant-pm-2), 10% defined fetal bovine serum, heat inactivated (HyClone Laboratories Inc., cat. SH30070.03HI), 50% L-WRN conditioned media (ATCC, cat. CRL-3276), 1.25 mM N-Acetyl-L-cysteine (Sigma-Aldrich, cat. A9165), 10 mM nicotinamide (Sigma-Aldrich, cat. N0636), 1X B-27 supplement (Thermo Fisher Scientific, cat. 17504044), 1X N-2 supplement (Thermo Fisher Scientific, cat. 17502048), 10 microM Y-27632 dihydrochloride (Tocris Bioscience, cat. 1254), and 50 ng/mL human EGF recombinant protein (Thermo Fisher Scientific, cat. PHG0311). The 485176-168-R4-J1-PDC line was cultured in Panc media, which includes all 6C/Colon 1B media components plus 100 ng/mL human FGF-10 (Thermo Fisher Scientific, cat. 100-26), 500 nM SB-431542 (Selleckchem, cat. S1067), and gastrin (Tocris, cat. 3006).
[…]

[1] = curve of first compound, second compound 0.0316 µM
[2] = curve of first compound, second compound 0.1 µM
[3] = curve of first compound, second compound 0.316 µM
[4] = curve of first compound, second compound 1 µM
[5] = curve of first compound, second compound 3.16 µM
[6] = curve of first compound, second compound 10 µM
[7] = second compound 0.0316 µM, first compound 0.0316 µM
[8] = second compound 0.0316 µM, first compound 0.1 µM
[9] = second compound 0.0316 µM, first compound 0.316 µM
[10] = second compound 0.0316 µM, first compound 1 µM
[11] = second compound 0.0316 µM, first compound 3.16 µM
[12] = second compound 0.0316 µM, first compound 10 µM
[13] = second compound 0.1 µM, first compound 0.0316 µM
[14] = second compound 0.1 µM, first compound 0.1 µM
[15] = second compound 0.1 µM, first compound 0.316 µM
[16] = second compound 0.1 µM, first compound 1 µM
[17] = second compound 0.1 µM, first compound 3.16 µM
[18] = second compound 0.1 µM, first compound 10 µM
[19] = second compound 0.316 µM, first compound 0.0316 µM
[20] = second compound 0.316 µM, first compound 0.1 µM
[21] = second compound 0.316 µM, first compound 0.316 µM
[22] = second compound 0.316 µM, first compound 1 µM
[23] = second compound 0.316 µM, first compound 3.16 µM
[24] = second compound 0.316 µM, first compound 10 µM
[25] = second compound 1 µM, first compound 0.0316 µM
[26] = second compound 1 µM, first compound 0.1 µM
[27] = second compound 1 µM, first compound 0.316 µM
[28] = second compound 1 µM, first compound 1 µM
[29] = second compound 1 µM, first compound 3.16 µM
[30] = second compound 1 µM, first compound 10 µM
[31] = second compound 3.16 µM, first compound 0.0316 µM
[32] = second compound 3.16 µM, first compound 0.1 µM
[33] = second compound 3.16 µM, first compound 0.316 µM
[34] = second compound 3.16 µM, first compound 1 µM
[35] = second compound 3.16 µM, first compound 3.16 µM
[36] = second compound 3.16 µM, first compound 10 µM
[37] = second compound 10 µM, first compound 0.0316 µM
[38] = second compound 10 µM, first compound 0.1 µM
[39] = second compound 10 µM, first compound 0.316 µM
[40] = second compound 10 µM, first compound 1 µM
[41] = second compound 10 µM, first compound 3.16 µM
[42] = second compound 10 µM, first compound 10 µM
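Note: spheroids exposed to agents for one week before reading.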
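Throughout, for viability, T/C: 100% = DMSO vehicle control viability.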

Q: Which IC50 [1] does the source give for `CC(C)n1c(=O)n(C)c2cnc3cc(F)c(-c4ccc(OCCCN5CCCCC5)nc4)cc3c21` + CN(C)c1ccc(Nc2c3ccc(NC(=O)CCN4CCCC4)cc3nc3cc(NC(=O)CCN4CCCC4)ccc23)cc1 here?
A: Its IC50 is over 10000 nM.

Q: And the IC50 [2]?
A: Its IC50 is over 10000 nM.

Q: What about the IC50 [3] of the same compound?
A: The IC50 was over 10000 nM.

Q: And the IC50 [4]?
A: Its IC50 is over 10000 nM.

Q: And the IC50 [5]?
A: The IC50 was 8350 nM.

Q: And the IC50 [6]?
A: The IC50 was 288 nM.

Q: What about the viability, T/C [7] of the same compound?
A: The viability, T/C was 117%.

Q: What about the viability, T/C [8] of the same compound?
A: The viability, T/C was 108%.

Q: What about the viability, T/C [9] of the same compound?
A: Its viability, T/C is 110%.

Q: And the viability, T/C [10]?
A: The viability, T/C was 93.5%.

Q: And the viability, T/C [11]?
A: The viability, T/C was 115%.

Q: And the viability, T/C [12]?
A: Its viability, T/C is 109%.

Q: What about the viability, T/C [13] of the same compound?
A: The viability, T/C was 98.6%.

Q: What about the viability, T/C [14] of the same compound?
A: Its viability, T/C is 105%.

Q: And the viability, T/C [15]?
A: Its viability, T/C is 101%.

Q: What about the viability, T/C [16] of the same compound?
A: The viability, T/C was 95.3%.

Q: And the viability, T/C [17]?
A: The viability, T/C was 116%.

Q: What about the viability, T/C [18] of the same compound?
A: The viability, T/C was 106%.

Q: And the viability, T/C [19]?
A: Its viability, T/C is 101%.

Q: What about the viability, T/C [20] of the same compound?
A: The viability, T/C was 103%.

Q: What about the viability, T/C [21] of the same compound?
A: The viability, T/C was 91%.

Q: And the viability, T/C [22]?
A: The viability, T/C was 107%.

Q: And the viability, T/C [23]?
A: The viability, T/C was 115%.

Q: And the viability, T/C [24]?
A: The viability, T/C was 85.2%.

Q: And the viability, T/C [25]?
A: Its viability, T/C is 112%.

Q: And the viability, T/C [26]?
A: The viability, T/C was 90.2%.

Q: And the viability, T/C [27]?
A: Its viability, T/C is 77%.

Q: And the viability, T/C [28]?
A: The viability, T/C was 96.8%.

Q: What about the viability, T/C [29] of the same compound?
A: The viability, T/C was 97.5%.

Q: What about the viability, T/C [30] of the same compound?
A: Its viability, T/C is 86%.

Q: What about the viability, T/C [31] of the same compound?
A: Its viability, T/C is 101%.

Q: What about the viability, T/C [32] of the same compound?
A: The viability, T/C was 81%.

Q: What about the viability, T/C [33] of the same compound?
A: The viability, T/C was 63.6%.

Q: And the viability, T/C [34]?
A: Its viability, T/C is 63.7%.

Q: And the viability, T/C [35]?
A: The viability, T/C was 55.1%.

Q: What about the viability, T/C [36] of the same compound?
A: Its viability, T/C is 46.7%.

Q: And the viability, T/C [37]?
A: Its viability, T/C is 64%.

Q: What about the viability, T/C [38] of the same compound?
A: The viability, T/C was 57%.

Q: What about the viability, T/C [39] of the same compound?
A: The viability, T/C was 51.2%.

Q: And the viability, T/C [40]?
A: Its viability, T/C is 34.8%.

Q: What about the viability, T/C [41] of the same compound?
A: Its viability, T/C is 22%.

Q: And the viability, T/C [42]?
A: The viability, T/C was 5.89%.

Q: Which results are given for `CC1COCCN1c1cc(-c2ccnn2C)c2ccnc(-c3ccn[nH]3)c2n1` (stereo unspecified) + Cc1cnc(CNC(=O)c2c(=O)c3ccc(N4CCCN(C)CC4)nc3n3c2sc2ccccc23)cn1?
A: IC50 [1]: < 31.6 nM; IC50 [2]: < 31.6 nM; IC50 [3]: < 31.6 nM; IC50 [4]: < 31.6 nM; IC50 [5]: < 31.6 nM; IC50 [6]: < 31.6 nM; viability, T/C [7]: 33.3%; viability, T/C [8]: 10.8%; viability, T/C [9]: 10.1%; viability, T/C [10]: 11.2%; viability, T/C [11]: 14.3%; viability, T/C [12]: 20.8%; viability, T/C [13]: 28.9%; viability, T/C [14]: 12.6%; viability, T/C [15]: 10.6%; viability, T/C [16]: 10.2%; viability, T/C [17]: 12.9%; viability, T/C [18]: 15.9%; viability, T/C [19]: 29.5%; viability, T/C [20]: 16.6%; viability, T/C [21]: 13.1%; viability, T/C [22]: 11.2%; viability, T/C [23]: 12%; viability, T/C [24]: 14.7%; viability, T/C [25]: 19.1%; viability, T/C [26]: 14.2%; viability, T/C [27]: 10.4%; viability, T/C [28]: 9.64%; viability, T/C [29]: 12.4%; viability, T/C [30]: 10.6%; viability, T/C [31]: 18.9%; viability, T/C [32]: 12.2%; viability, T/C [33]: 11.1%; viability, T/C [34]: 8.14%; viability, T/C [35]: 10.1%; viability, T/C [36]: 8.5%; viability, T/C [37]: 15.4%; viability, T/C [38]: 12.7%; viability, T/C [39]: 10.5%; viability, T/C [40]: 10.9%; viability, T/C [41]: 7.61%; viability, T/C [42]: 8.53%

Q: How did the viability, T/C (compound 0.0316 µM) turn out when `CC1COCCN1c1cc(C2(O)CC3CCC(C2)O3)c2cnn(-c3ccn[nH]3)c2n1` (stereo unspecified) was run?
A: The viability, T/C was 32.7% and 40.2% and 58%.

Q: What about the viability, T/C (compound 0.1 µM) of the same compound?
A: The viability, T/C was 11% and 10.8% and 17.1%.

Q: What about the viability, T/C (compound 0.316 µM) of the same compound?
A: Its viability, T/C is 11.7% and 12.3% and 23.7%.

Q: And the viability, T/C (compound 1 µM)?
A: The viability, T/C was 15.8% and 17.1% and 31.5%.

Q: And the viability, T/C (compound 3.16 µM)?
A: The viability, T/C was 19.6% and 19% and 32.1%.

Q: What about the viability, T/C (compound 10 µM) of the same compound?
A: The viability, T/C was 6.3% and 8.53% and 21.2%.

Q: What about the IC50 (curve of compound) of the same compound?
A: Its IC50 is < 31.6 nM and 41.8 nM.
